System: patients with T2DM
Test: Example 1 study: fasting pharmacodynamic markers (glucose, insulin, C-peptide, glucagon, lipids, HOMA indices)
Format: in vivo, human
Protocol: Fasting plasma samples for glucose and insulin are explored as secondary PD markers. Exploratory PD may include, but are not limited to plasma glucagon, C-peptide, native OXM, lipid panel (triglycerides, total cholesterol, low-density lipoprotein cholesterol, and high-density lipoprotein cholesterol), beta cell function, and homeostatic model assessment (HOMA) indices.
Plasma concentrations of at least glucose, glucagon, insulin, C-peptide and native OXM, are assayed using validated analytical methods.
In respect of Cohort 1, PD sampling occurs at baseline and Days 1, 3 (48 hours post administration of Compound 1), 8, 22, 29, 50, 57, 78 and 80. […]

[1] = Cohort 1, escalated to 4.5 mg, Day 78 and Day 80
[2] = Cohort 1, escalated to 4.5 mg, Day 80
[3] = Cohort 2, escalated to 6.0 mg, Day 64
[4] = Cohort 2, escalated to 8.0 mg, Day 85

SMILES: CC(C)C[C@H](NC(=O)[C@H](CC(C)C)NC(=O)[C@H](Cc1c[nH]c2ccccc12)NC(=O)[C@H](CCC(=O)O)NC(=O)[C@@H](NC(=O)[C@H](Cc1ccccc1)NC(=O)[C@H](CCC(=O)O)NC(=O)[C@H](CCCCNC(=O)COCCOCCNC(=O)COCCOCCNC(=O)CC[C@H](NC(=O)CCCCCCCCCCCCCCCCCCC(=O)O)C(=O)O)NC(=O)[C@H](C)NC(=O)[C@H](CCCCN)NC(=O)[C@H](CCCCN)NC(=O)[C@H](CCC(=O)O)NC(=O)[C@H](CC(=O)O)NC(=O)[C@H](CC(C)C)NC(=O)[C@H](Cc1ccc(O)cc1)NC(=O)[C@H](CCCCN)NC(=O)[C@H](CO)NC(=O)[C@H](Cc1ccc(O)cc1)NC(=O)[C@H](CC(=O)O)NC(=O)[C@H](CO)NC(=O)[C@@H](NC(=O)[C@H](Cc1ccccc1)NC(=O)[C@@H](NC(=O)CNC(=O)[C@H](CCC(N)=O)NC(=O)C(C)(C)NC(=O)[C@@H](N)Cc1c[nH]cn1)[C@@H](C)O)[C@@H](C)O)C(C)C)C(=O)N[C@@H](CCC(=O)O)C(=O)NCC(=O)NCC(=O)N1CCC[C@H]1C(=O)N[C@@H](CO)C(=O)N[C@@H](CO)C(=O)NCC(N)=O [Compound 1]
- mean fasting glucagon (Cohort 1, escalated to 4.5 mg, Day 78, baseline 14.79 pmol/L): 6.65 pmol/L
- mean fasting C-peptide (Cohort 1, escalated to 4.5 mg, Day 78, baseline 667 pmol/L): 820 pmol/L
- mean fasting triglyceride (Cohort 1, escalated to 4.5 mg, Day 78, baseline 2.938): 1.456 mmol/L
- mean HOMA-IR index (Cohort 1, escalated to 4.5 mg, Day 78, baseline 4.704): 4.289
- mean fasting total cholesterol (Cohort 1, escalated to 4.5 mg, Day 78, baseline 5.065): 4.275 mmol/L
- mean fasting insulin (Cohort 1, escalated to 4.5 mg, Day 78, baseline 9.648): 13.362 mIU/L
- approximate decrease of HOMA-IR from baseline [1]: ~9%
- approximate decrease of fasting LDL cholesterol from baseline [1]: ~10%
- approximate decrease of fasting glucagon from baseline [1]: 45-55%
- approximate decrease of fasting total cholesterol from baseline [1]: 12-16%
- approximate decrease of fasting triglyceride from baseline [1]: 29-50%
- approximate increase of fasting C-peptide from baseline [1]: 22-31%
- approximate increase of fasting insulin from baseline [1]: 38-46%
- mean fasting LDL cholesterol (Cohort 1, escalated to 4.5 mg, Day 78 and Day 80, baseline 2.852): 2.56 mmol/L
- approximate increase of HOMA-B from baseline [2]: ~145%
- approximate reduction of mean fasting glucose from baseline [2]: ~40%
- mean fasting glucagon (Cohort 1, escalated to 4.5 mg, Day 80, baseline 14.79 pmol/L): 8.19 pmol/L
- mean fasting C-peptide (Cohort 1, escalated to 4.5 mg, Day 80, baseline 667 pmol/L): 875 pmol/L
- mean fasting triglyceride (Cohort 1, escalated to 4.5 mg, Day 80, baseline 2.938): 2.084 mmol/L
- mean fasting total cholesterol (Cohort 1, escalated to 4.5 mg, Day 80, baseline 5.065): 4.461 mmol/L
- mean fasting insulin (Cohort 1, escalated to 4.5 mg, Day 80, baseline 9.648): 14.046 mIU/L
- mean fasting glucose (Cohort 1, escalated to 4.5 mg, Day 80, baseline 10.78): 6.52 mmol/L
- approximate decrease of fasting glucagon from baseline (Cohort 2, escalated to 6.0 mg): ~63%
- approximate increase of fasting C-peptide from baseline (Cohort 2, escalated to 6.0 mg): ~12%
- approximate increase of fasting insulin from baseline (Cohort 2, escalated to 6.0 mg): ~14%
- approximate decrease of HOMA-IR from baseline [3]: ~20%
- approximate decrease of fasting LDL cholesterol from baseline [3]: ~29%
- approximate decrease of fasting total cholesterol from baseline [3]: ~26%
- approximate decrease of fasting triglyceride from baseline [3]: ~43%
- approximate increase of HOMA-B from baseline [3]: ~76%
- mean fasting triglyceride (Cohort 2, escalated to 6.0 mg, Day 64, baseline 1.867): 1.055 mmol/L
- mean HOMA-IR index (Cohort 2, escalated to 6.0 mg, Day 64, baseline 2.7): 2.158
- mean fasting LDL cholesterol (Cohort 2, escalated to 6.0 mg, Day 64, baseline 2.796): 1.997 mmol/L
- mean fasting total cholesterol (Cohort 2, escalated to 6.0 mg, Day 64, baseline 4.971): 3.673 mmol/L
- mean HOMA-B index (Cohort 2, escalated to 6.0 mg, Day 64, baseline 9.108): 16.072
- mean fasting insulin (Cohort 2, escalated to 6.0 mg, baseline 5.892): 6.73 mIU/L
- mean fasting glucagon (Cohort 2, escalated to 6.0 mg, baseline 9.83): 3.65 pmol/L
- mean fasting C-peptide (Cohort 2, escalated to 6.0 mg, baseline 532.8): 597 pmol/L
- approximate increase of fasting C-peptide from baseline (Cohort 2, escalated to 8.0 mg): approximately 2%
- approximate increase of fasting insulin from baseline (Cohort 2, escalated to 8.0 mg): ~12%
- mean fasting glucagon (Cohort 2, escalated to 8.0 mg, Day 80 (so in the source), baseline 9.83): 2 pmol/L
- approximate decrease of HOMA-IR from baseline [4]: approximately 27%
- approximate decrease of fasting LDL cholesterol from baseline [4]: approximately 30%
- approximate decrease of fasting total cholesterol from baseline [4]: approximately 27%
- approximate decrease of fasting triglyceride from baseline [4]: approximately 54%
- approximate increase of HOMA-B from baseline [4]: approximately 83%
- mean fasting triglyceride (Cohort 2, escalated to 8.0 mg, Day 85, baseline 1.867): 0.855 mmol/L
- mean HOMA-IR index (Cohort 2, escalated to 8.0 mg, Day 85, baseline 2.7): 1.976
- mean fasting LDL cholesterol (Cohort 2, escalated to 8.0 mg, Day 85, baseline 2.796): 1.954 mmol/L
- mean fasting total cholesterol (Cohort 2, escalated to 8.0 mg, Day 85, baseline 4.971): 3.614 mmol/L

From patent US20260248879A1, “METHODS OF USING A GCG/GLP1 CO-AGONIST FOR THERAPY” (ELI LILLY AND COMPANY, priority 2022, published 2026)
